# Laboratory results: patent US20160317468A1, “USES OF CANNABIDIOL FOR TREATMENT OF INFANTILE SPASMS” (priority 2015, published 2016)
# Columns and labels:
# [1] = tested on: infantile spasms; assay: Clinical trial of a composition comprising cannabidiol in subjects with infantile spasms, overnight video-EEG on day 14; format: in vivo; details: human subjects 6 to 36 months who failed hormonal therapy and vigabatrin, CBD titrated to 40 mg/kg/day TID, control receives placebo
# Description: Human subjects with video-EGG confirmed infantile spasms, between the ages of 6 months and 36 months, who have failed adequate treatments with hormonal therapy (adrenocorticotropic hormone (ACTH) (e.g., 150 IU/m2/day×2 weeks) and/or prednisolone (e.g., 8 mg/kg/day×2 weeks) and vigabatrin (e.g., 150 mg/kg/day×2 weeks)) will receive a composition comprising cannabidiol (“CBD”) according to the treatment schedule of Table 5. The control group receives placebo.
# The 40 mg/kg/day treatment is optionally extended for up to one year in the cannabidiol group for subjects who display a response (FIG. 1). The cannabidiol dosage is tapered in the cannabidiol group according to Table 6.
# [2] = tested on: infantile spasms; details: high-dose study; intramuscular ACTH therapy; cited from earlier work
Compound,"symptoms of infantile spasms on overnight video-EEG, cannabidiol group relative to control group [1]",patients with cessation of seizures and normal EEG patterns [2]
"C=C(C)[C@@H]1CCC(C)=C[C@H]1c1c(O)cc(CCCCC)cc1O [cannabidiol, (−)-trans-2-p-mentha-1,8-dien-3-yl-5-pentylresorcinol]",reduced symptoms of infantile spasms,
"adrenocorticotropic hormone (SYSMEHFRWGKPVGKKRRPVKVYPNGAEDESAEAFPLEF; Corticotropin; UniProt P01189 138-176, looked up) [ACTH]",,13 of the 15
